{"source": "patent US20130274258A1", "about": "“CARBAZOLE AND CARBOLINE DERIVATIVES, AND PREPARATION AND THERAPEUTIC APPLICATIONS THEREOF” (PHILIP MORRIS PRODUCTS S.A., priority 2010, published 2013)"}
{"system": "Jurkat cells", "assay": "Jurkat cell viability, resazurin (Alamar Blue) assay", "assay_type": "cell-based", "settings": "Homo sapiens; Jurkat cells, 22 h then resazurin 4 h; three experiments in duplicates; read-out: IC50", "experimental": "(§1) The compounds were tested for pharmacological activity. In each of the tests, each compound was tested at […] in duplicates. […] The percentage of response relative to the DMSO control was then calculated for the mean value of the duplicates of each test. The values of the three tests were finally averaged and the standard deviations calculated.\n(§2) Jurkat cells (10'000 cells/well) were incubated in the presence of various concentrations of compounds, doxorubicin or staurosporine. Twenty-two hours later, cells were incubated with resazurin (20 μg/ml) for 4 hours and fluorescence was measured at 590 nm.", "units": {"IC50": "nM"}}
{"smiles": "Cc1nccc2c1[nH]c1ccc(-c3cccc(N(C)C)c3)cc12", "note": "[Example C5, 6-(3-(N,N-dimethylamino)phenyl)-1-methyl-9H-pyrido[3,4-b]indole]", "IC50": 11500}
{"smiles": "Cc1nccc2c1[nH]c1ccc(-c3cncnc3)cc12", "note": "[Example C8, 6-(pyrimidin-5-yl)-1-methyl-9H-pyrido[3,4-b]indole]", "IC50": 27800}
{"smiles": "Cc1ccccc1-c1ccc2[nH]c3c(C)nccc3c2c1", "note": "[Example C9, 6-(2-methylphenyl)-1-methyl-9H-pyrido[3,4-b]indole]", "IC50": 41800}
{"smiles": "C=CCn1c2ccc(-c3ccc4c(c3)CCO4)cc2c2ccnc(C)c21", "note": "[Example C11]", "IC50": "> 10000"}
{"smiles": "Cc1nccc2c3cc(-c4ccc5c(c4)CCO5)ccc3n(Cc3ccccc3)c12", "note": "[Example C12]", "IC50": "> 10000"}
{"smiles": "CCCCCn1c2ccc(-c3ccc4c(c3)CCO4)cc2c2ccnc(C)c21", "note": "[Example C13]", "IC50": "> 10000"}
{"smiles": "Cc1nccc2c1[nH]c1ccc(-c3ccccc3F)cc12", "note": "[Example E4, 6-(2-fluorophenyl)-1-methyl-9H-pyrido[3,4-b]indole]", "IC50": 4070}
{"smiles": "Cc1nccc2c1[nH]c1ccc(-c3cccc(F)c3)cc12", "note": "[Example E5, 6-(3-fluorophenyl)-1-methyl-9H-pyrido[3,4-b]indole]", "IC50": 567}
{"smiles": "Cc1cc(C)cc(-c2ccc3[nH]c4c(C)nccc4c3c2)c1", "note": "[Example E8, 6-(3,5-dimethylphenyl)-1-methyl-9H-pyrido[3,4-b]indole]", "IC50": 128}
{"smiles": "Cc1nccc2c1[nH]c1ccc(-c3cccc(CN)c3)cc12", "note": "[Example E10, 6-(3-(aminomethyl)phenyl)-1-methyl-9H-pyrido[3,4-b]indole]", "IC50": 988}
{"smiles": "CC(=O)NCc1cccc(-c2ccc3[nH]c4c(C)nccc4c3c2)c1", "note": "[Example E11, 6-(3-(acetamidomethyl)phenyl)-1-methyl-9H-pyrido[3,4-b]indole]", "IC50": 34}
{"smiles": "Cc1nccc2c1[nH]c1ccc(-c3cccc(C(N)=O)c3)cc12", "note": "[Example E12, 6-(3-aminocarbonylphenyl)-1-methyl-9H-pyrido[3,4-b]indole]", "IC50": 46}
{"smiles": "CC(=O)c1cccc(-c2ccc3[nH]c4c(C)nccc4c3c2)c1", "note": "[Example E13, 6-(3-acetylphenyl)-1-methyl-9H-pyrido[3,4-b]indole]", "IC50": 2030}
{"smiles": "COC(=O)c1cccc(-c2ccc3[nH]c4c(C)nccc4c3c2)c1", "note": "[Example E14, 6-(3-methoxycarbonylphenyl)-1-methyl-9H-pyrido[3,4-b]indole]", "IC50": 7230}
{"smiles": "CC(=O)OCc1cccc(-c2ccc3[nH]c4c(C)nccc4c3c2)c1", "note": "[Example E15, 6-(3-(acetoxymethyl)phenyl)-1-methyl-9H-pyrido[3,4-b]indole]", "IC50": 34}
{"smiles": "CC(=O)OCc1cc(COC(C)=O)cc(-c2ccc3[nH]c4c(C)nccc4c3c2)c1", "note": "[Example E16, 6-(3,5-bis(acetoxymethyl)phenyl)-1-methyl-9H-pyrido[3,4-b]indole]", "IC50": 52}
{"smiles": "Cc1nccc2c1[nH]c1ccc(-c3cccc(O)c3)cc12", "note": "[Example E17, 6-(3-hydroxyphenyl)-1-methyl-9H-pyrido[3,4-b]indole]", "IC50": 195}
{"smiles": "Cc1nccc2c1[nH]c1ccc(-c3cccc(CO)c3)cc12", "note": "[Example E18, 6-(3-hydroxymethylphenyl)-1-methyl-9H-pyrido[3,4-b]indole]", "IC50": 46}
{"smiles": "Cc1nccc2c1[nH]c1ccc(-c3cccc(C(C)O)c3)cc12", "note": "(stereo not shown) [Example E19, 6-(3-(1-hydroxyethyl)phenyl)-1-methyl-9H-pyrido[3,4-b]indole]", "IC50": 1400}
{"smiles": "Cc1nccc2c1[nH]c1ccc(-c3ccc(C#N)cc3)cc12", "note": "[Example E22, 6-(4-cyanophenyl)-1-methyl-9H-pyrido[3,4-b]indole]", "IC50": 5000}
{"smiles": "Cc1nccc2c1[nH]c1ccc(-c3cccc(CC#N)c3)cc12", "note": "[Example E23, 6-(3-cyanomethylphenyl)-1-methyl-9H-pyrido[3,4-b]indole]", "IC50": 64}
{"smiles": "Cc1nccc2c1[nH]c1ccc(-c3cc(C#N)ccc3F)cc12", "note": "[Example E24, 6-(5-cyano-2-fluorophenyl)-1-methyl-9H-pyrido[3,4-b]indole]", "IC50": 968}
{"smiles": "Cc1nccc2c1[nH]c1ccc(-c3ccc4[nH]ccc4c3)cc12", "note": "[Example E26, 6-(1H-indol-5-yl)-1-methyl-9H-pyrido[3,4-b]indole]", "IC50": 374}
{"smiles": "Cc1nccc2c1[nH]c1ccc(-c3cccc(Cc4nn[nH]n4)c3)cc12", "note": "[Example E27, 6-(((2H-tetrazol-5-yl)methyl)phenyl)-1-methyl-9H-pyrido[3,4-b]indole]", "IC50": 2200}
{"smiles": "Cc1ccc(-c2ccc3[nH]c4c(C)nccc4c3c2)o1", "note": "[Example E28, 6-(5-methylfuran-2-yl)-1-methyl-9H-pyrido[3,4-b]indole]", "IC50": 130}
{"smiles": "Cc1nccc2c1[nH]c1ccc(-c3ccc4c(c3)OCO4)cc12", "note": "[Example E30, 6-(benzo[d][1,3]dioxol-5-yl)-1-methyl-9H-pyrido[3,4-b]indole]", "IC50": 490}
{"smiles": "Cc1nccc2c1[nH]c1ccc(-c3ccc(C=O)o3)cc12", "note": "[Example E31, 6-(5-formylfuran-2-yl)-1-methyl-9H-pyrido[3,4-b]indole]", "IC50": 2290}
{"smiles": "Cc1nccc2c1[nH]c1ccc(-c3ccc(CO)o3)cc12", "note": "[Example E32, 6-(5-hydroxymethylfuran-2-yl)-1-methyl-9H-pyrido[3,4-b]indole]", "IC50": 3660}
{"smiles": "Cc1nccc2c1[nH]c1ccc(-c3cccc(N)c3)cc12", "note": "[Example E33, 6-(3-aminophenyl)-1-methyl-9H-pyrido[3,4-b]indole]", "IC50": 96}
{"smiles": "Cc1nccc2c1[nH]c1ccc(-c3cccc(NC=O)c3)cc12", "note": "[Example E34, 6-(3-formamidophenyl)-1-methyl-9H-pyrido[3,4-b]indole]", "IC50": 28}
{"smiles": "FC(F)(F)c1nccc2c1[nH]c1ccc(-c3ccc4c(c3)CCO4)cc12", "note": "[Example E36, 6-(2,3-dihydrobenzofuran-5-yl)-1-trifluoromethyl-9H-pyrido[3,4-b]indole]", "IC50": 96}
{"smiles": "CCc1nccc2c1[nH]c1ccc(-c3ccc4c(c3)CCO4)cc12", "note": "[Example E37, 6-(2,3-dihydrobenzofuran-5-yl)-1-ethyl-9H-pyrido[3,4-b]indole]", "IC50": 4}
{"smiles": "CCCc1nccc2c1[nH]c1ccc(-c3ccc4c(c3)CCO4)cc12", "note": "[Example E38, 6-(2,3-dihydrobenzofuran-5-yl)-1-propyl-9H-pyrido[3,4-b]indole]", "IC50": 230}
{"smiles": "CC(C)c1nccc2c1[nH]c1ccc(-c3ccc4c(c3)CCO4)cc12", "note": "[Example E39, 6-(2,3-dihydrobenzofuran-5-yl)-1-isopropyl-9H-pyrido[3,4-b]indole]", "IC50": 302}
{"smiles": "CCc1nccc2c1[nH]c1ccc(-c3cccc(COC)c3)cc12", "note": "[Example E40, 6-(3-(methoxymethyl)phenyl)-1-ethyl 9H-pyrido[3,4-b]indole]", "IC50": 2880}
{"smiles": "CCNC(=O)NCc1cccc(-c2ccc3[nH]c4c(C)nccc4c3c2)c1", "note": "[Example E41]", "IC50": 1240}
{"smiles": "Cc1nccc2c1[nH]c1ccc(-c3cccc(CN(C)C)c3)cc12", "note": "[Example E42, N,N-dimethyl-1-(3-(1-methyl-9H-pyrido[3,4-b]indol-6-yl)phenyl)methanamine]", "IC50": 850}
{"smiles": "CCc1nccc2c1[nH]c1ccc(-c3cccc(COCCOC)c3)cc12", "note": "[Example E43, 6-(3-((2-methoxyethoxy)methyl)phenyl)-1-ethyl 9H-pyrido[3,4-b]indole]", "IC50": 340}
{"smiles": "Cc1nccc2c1[nH]c1ccc(-c3cccc(CNS(C)(=O)=O)c3)cc12", "note": "[Example E45]", "IC50": 52}
{"smiles": "Cc1nccc2c1[nH]c1ccc(-c3cccc(S(N)(=O)=O)c3)cc12", "note": "[Example E46, 3-(1-methyl-9H-pyrido[3,4-b]indol-6-yl)benzenesulfonamide]", "IC50": 260}
{"smiles": "Cc1nccc2c1[nH]c1ccc(-c3cccc(S(=O)(=O)NCCO)c3)cc12", "note": "[Example E47, N-(2-hydroxyethyl)-3-(1-methyl-9H-pyrido[3,4-b]indol-6-yl)benzenesulfonamide]", "IC50": 1210}
{"smiles": "Cc1nccc2c1[nH]c1ccc(-c3cccc(C(=O)NCCO)c3)cc12", "note": "[Example E48, N-(2-hydroxyethyl)-3-(1-methyl-9H-pyrido[3,4-b]indol-6-yl)benzamide]", "IC50": 627}
{"smiles": "Cc1nccc2c1[nH]c1ccc(-c3cccc(CNC(=O)N4CCN(C)CC4)c3)cc12", "note": "[Example E49]", "IC50": 225}
{"smiles": "CCc1nccc2c3cc(-c4cccc(C(N)=O)c4)ccc3n(C)c12", "note": "[Example E50, 3-(1-ethyl-9-methyl-9H-pyrido[3,4-b]indol-6-yl)benzamide]", "IC50": 16}
{"smiles": "Cc1nccc2c3cc(-c4ccc5c(c4)CCO5)ccc3n(C)c12", "note": "[Example E51, 6-(2,3-dihydrobenzofuran-5-yl)-1,9-dimethyl-9H-pyrido[3,4-b]indole]", "IC50": 9}
{"system": "Jurkat cells", "assay": "Jurkat cell viability, resazurin (Alamar Blue) assay", "assay_type": "cell-based", "settings": "Jurkat cells, 22 h then resazurin 4 h; three experiments in duplicates", "experimental": "as §1, §2"}
{"smiles": "Cc1nccc2c1[nH]c1ccc(-c3ccc4ccccc4c3)cc12", "note": "[Example C1, 6-(naphthalen-2-yl)-1-methyl-9H-pyrido[3,4-b]indole]", "IC50 (μM)": "not active"}
{"smiles": "Cc1nccc2c1[nH]c1ccc(-c3ccc(Cl)cc3)cc12", "note": "[Example C2, 6-(4-chlorophenyl)-1-methyl-9H-pyrido[3,4-b]indole]", "IC50 (μM)": "not active"}
{"smiles": "Cc1nccc2c1[nH]c1ccc(-c3ccc(C(F)(F)F)cc3)cc12", "note": "[Example C3, 6-(4-(trifluoromethyl)phenyl)-1-methyl-9H-pyrido[3,4-b]indole]", "IC50 (μM)": "not active"}
{"smiles": "COc1ccc(-c2ccc3[nH]c4c(C)nccc4c3c2)cc1", "note": "[Example C4, 6-(4-methoxyphenyl)-1-methyl-9H-pyrido[3,4-b]indole]", "IC50 (μM)": "not active"}
{"smiles": "Cc1nccc2c1[nH]c1ccc(-c3cccc(C(=O)O)c3)cc12", "note": "[Example C6, 6-(3-carboxyphenyl)-1-methyl-9H-pyrido[3,4-b]indole]", "IC50 (μM)": "not active"}
{"smiles": "Cc1nccc2c1[nH]c1ccc(-c3cccc(CC(=O)O)c3)cc12", "note": "[Example C7, 6-(3-carboxymethylphenyl)-1-methyl-9H-pyrido[3,4-b]indole]", "IC50 (μM)": "not active"}
{"smiles": "Cc1nccc2c1[nH]c1ccc(-c3ccsc3)cc12", "note": "[Example C10, 6-(thiophen-3-yl)-1-methyl-9H-pyrido[3,4-b]indole]", "IC50 (μM)": "not active"}
